Results published in patent US20240298644A1, “HETEROCYCLIC COMPOUND AND RESISTANT HARMFUL ARTHROPOD- CONTROLLING METHOD FOR COMPOSITION CONTAINING SAME” (SUMITOMO CHEMICAL COMPANY, LIMITED, priority 2021, published 2024).

Key:
[1] = system: resistant cotton aphids (Aphis gossypii) (lineages collected in Miyazaki prefecture in 2012, screened with imidacloprid); assay: Test method 1: foliar spray on cucumber seedlings infested with resistant cotton aphids; assay type: in vivo; details: Comparative Test Example 1, 500 ppm
Method: Test compounds are made to a formulation according to a similar method to that described in the Formulation example 1, and thereto is added water containing 0.03 v/v % of Shindain (registered trademark) to prepare a diluted solution containing a prescribed concentration of the test compound.
Cucumber (cucumber sativus) seedling (on the developmental stage of the second true leaf) is planted in a cup, and approximately 30 resistant cotton aphids (Aphis gossypii) (all stages of life) (lineages collected in Miyazaki prefecture in 2012, screened with imidacloprid). After one day, the diluted solutions are sprayed into the seedling at a ratio of 10 mL/seedling. After 5 days, the number of the surviving insects is examined and the controlling value is calculated by the following equation.
Controlling value (%)−{1−(Cb×Tai)/(Cai×Tb)}×100
wherein the symbols in the equation represent the following descriptions. • Cb: Number of the test insects in untreated group; • Cai: Number of the surviving insects at the time of the examination in untreated group; • Tb: Number of the test insects in treated group; • Tai: Number of the surviving insects at the time of the examination in treated group;
Here the “untreated group” represents a group where a similar treatment procedure to that of treated group except not using the test compound is done.

[2] = Test method 2: spray on rice seedlings, resistant brown planthopper larvae released; assay type: in vivo; details: Nilaparvata lugens, Comparative Test Example 2, 500 ppm
Method: Test compounds are made to a formulation according to a similar method to that described in the Formulation example 5, and thereto is added water containing 0.03 v/v % of Shindain (registered trademark) to prepare a diluted solution containing a prescribed concentration of the test compound.
Rice (Oryza sativa) seedling (on the developmental stage of the second true leaf) is planted in a container, and the diluted solutions are sprayed into the seedling in a ratio of 10 mL/seedling. Thereafter, 20 of 3rd instar larvae of resistant brown planthoppers (Nilaparvata lugens) (lineages collected in Kagoshima prefecture in 2018, screened with imidacloprid) are released onto the rice leaves. After 6 days, the number of the surviving insects is examined and the mortality is calculated by the following equation.
Mortality (%)={1−the number of the surviving insects/20}×100

[3] = Test method 5: spray on tomato seedlings carrying larvae of resistant tobacco whiteflies; details: Bemisia tabaci

Measured: mortality at 500 ppm

N#Cc1ccc(-c2nc(-c3c(Cl)cncc3Cl)no2)cc1 [Comparative compound 1]
10%: all assays above
